Measured values from ChEMBL document CHEMBL1147874, “Structure-activity based study of the Smac-binding pocket within the BIR3 domain of XIAP” (Bioorg Med Chem, 2007).
Active and inactive are the calls of the source. No cut-off for these calls is given here.

Tests used:
[1] = target: E3 ubiquitin-protein ligase XIAP (Homo sapiens, UniProt P98170); assay: Binding affinity to BIR3 domain of XIAP by competitive fluorescent binding assay
Homo sapiens = species on record: Homo sapiens; assay: Cytotoxicity against […] cells assessed as reduction in cell viability at 30 to 500 uM after 72 hrs by MTT assay; assay type: functional, cell-based

Chain of E3 ubiquitin-protein ligase XIAP (P98170 whole entry, the tested form may be a part): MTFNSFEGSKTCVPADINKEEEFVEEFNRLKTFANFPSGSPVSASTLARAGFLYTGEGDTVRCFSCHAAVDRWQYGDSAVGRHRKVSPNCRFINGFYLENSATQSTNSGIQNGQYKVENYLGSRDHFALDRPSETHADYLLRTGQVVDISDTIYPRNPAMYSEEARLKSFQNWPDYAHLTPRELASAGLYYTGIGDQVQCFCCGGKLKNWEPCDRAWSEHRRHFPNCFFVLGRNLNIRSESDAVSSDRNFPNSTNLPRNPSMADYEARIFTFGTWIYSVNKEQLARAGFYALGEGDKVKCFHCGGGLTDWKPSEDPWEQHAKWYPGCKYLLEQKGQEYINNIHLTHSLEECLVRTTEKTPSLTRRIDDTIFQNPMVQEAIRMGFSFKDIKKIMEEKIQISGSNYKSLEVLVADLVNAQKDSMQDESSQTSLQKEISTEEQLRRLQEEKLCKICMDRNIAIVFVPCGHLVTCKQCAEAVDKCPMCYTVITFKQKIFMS

SMILES	Kd [1] [µM]	Activity (Homo sapiens)
C[C@H](N)c1nc(C(=O)N2CCC[C@H]2C(=O)N[C@@H](Cc2ccccc2)C(=O)O)co1	11	–
C[C@H](N)c1nc(C(=O)N2CCC[C@H]2C(=O)N[C@@H](Cc2c[nH]c3ccccc23)C(=O)O)co1	–	Active
CC[C@H](C)[C@H](NC(=O)[C@@H]1CCCN1C(=O)c1coc([C@H](C)N)n1)C(=O)O	300	–
CC[C@H](C)[C@H](NC(=O)[C@@H]1CCCN1C(=O)[C@@H](NC(=O)[C@H](C)N)C(C)C)C(=O)O	–	inactive
